Laboratory results as given in patent publication US8735609B2, “Bryostatin analogues, synthetic methods and uses” (The Board of Trustees of the Leland Stanford Junior …, priority 2007, dated 2014).

What was measured:
[1] = system: CCRF-CEM; experiment: NCI human cancer cell line growth inhibition: CCRF-CEM (Leukemia); format: cell-based
[2] = system: HL-60(TB); experiment: cells; format: cell-based, human
[3] = system: K-562; experiment: NCI human cancer cell line growth inhibition: K-562 (Leukemia); format: cell-based
[4] = system: MOLT-4; experiment: NCI human cancer cell line growth inhibition: MOLT-4 (Leukemia); format: cell-based
[5] = system: RPMI-8226; experiment: NCI human cancer cell line growth inhibition: RPMI-8226 (Leukemia); format: cell-based
[6] = system: SR; experiment: NCI human cancer cell line growth inhibition: SR (Leukemia); format: cell-based
[7] = system: A549/ATCC; experiment: NCI human cancer cell line growth inhibition: A549/ATCC (NSC Lung); format: cell-based
[8] = system: EKVX; experiment: NCI human cancer cell line growth inhibition: EKVX (NSC Lung); format: cell-based
[9] = system: HOP-62; experiment: NCI human cancer cell line growth inhibition: HOP-62 (NSC Lung); format: cell-based
[10] = system: HOP-92; experiment: NCI human cancer cell line growth inhibition: HOP-92 (NSC Lung); format: cell-based
[11] = system: NCI-H226; format: cell-based, human; details: NCI-H226, NSC Lung
[12] = system: NCI-H23; format: cell-based, human; details: NCI-H23, NSC Lung
[13] = system: NCI-H460; format: cell-based, human; details: NCI-H460, NSC Lung
[14] = system: NCI-H522; format: cell-based, human; details: NCI-H522, NSC Lung
[15] = system: COLO 205; experiment: NCI human cancer cell line growth inhibition: COLO 205 (Colon); format: cell-based
[16] = system: HCC-2998; experiment: NCI human cancer cell line growth inhibition: HCC-2998 (Colon); format: cell-based
[17] = system: HCT-116; experiment: NCI human cancer cell line growth inhibition: HCT-116 (Colon); format: cell-based
[18] = system: HCT-15; experiment: NCI human cancer cell line growth inhibition: HCT-15 (Colon); format: cell-based
[19] = system: HT29; experiment: NCI human cancer cell line growth inhibition: HT29 (Colon); format: cell-based
[20] = system: KM12; experiment: NCI human cancer cell line growth inhibition: KM12 (Colon); format: cell-based
[21] = system: SW-620; experiment: NCI human cancer cell line growth inhibition: SW-620 (Colon); format: cell-based
[22] = system: SF-268; experiment: NCI human cancer cell line growth inhibition: SF-268 (CNS); format: cell-based
[23] = system: SF-295; experiment: NCI human cancer cell line growth inhibition: SF-295 (CNS); format: cell-based
[24] = system: SF-539; experiment: NCI human cancer cell line growth inhibition: SF-539 (CNS); format: cell-based
[25] = system: SNB-19; experiment: NCI human cancer cell line growth inhibition: SNB-19 (CNS); format: cell-based
[26] = system: SNB-75; experiment: NCI human cancer cell line growth inhibition: SNB-75 (CNS); format: cell-based
[27] = system: U251; experiment: NCI human cancer cell line growth inhibition: U251 (CNS); format: cell-based
[28] = system: PC-3; experiment: NCI human cancer cell line growth inhibition: PC-3 (Prostate); format: cell-based
[29] = system: DU-145; experiment: NCI human cancer cell line growth inhibition: DU-145 (Prostate); format: cell-based
[30] = system: LOX IMVI; experiment: NCI human cancer cell line growth inhibition: LOX IMVI (Melanoma); format: cell-based
[31] = system: MALME-3M; experiment: NCI human cancer cell line growth inhibition: MALME-3M (Melanoma); format: cell-based
[32] = system: MI4; experiment: NCI human cancer cell line growth inhibition: MI4 (Melanoma); format: cell-based
[33] = system: SK-MEL-2; experiment: NCI human cancer cell line growth inhibition: SK-MEL-2 (Melanoma); format: cell-based
[34] = system: SK-MEL-28; experiment: NCI human cancer cell line growth inhibition: SK-MEL-28 (Melanoma); format: cell-based
[35] = system: SK-MEL-5; experiment: NCI human cancer cell line growth inhibition: SK-MEL-5 (Melanoma); format: cell-based
[36] = system: UACC-257; experiment: NCI human cancer cell line growth inhibition: UACC-257 (Melanoma); format: cell-based
[37] = system: UACC-62; experiment: NCI human cancer cell line growth inhibition: UACC-62 (Melanoma); format: cell-based
[38] = system: IGROVI; experiment: NCI human cancer cell line growth inhibition: IGROVI (Ovarian); format: cell-based
[39] = system: OVCAR-3; experiment: NCI human cancer cell line growth inhibition: OVCAR-3 (Ovarian); format: cell-based
[40] = system: OVCAR-4; experiment: NCI human cancer cell line growth inhibition: OVCAR-4 (Ovarian); format: cell-based
[41] = system: OVCAR-5; experiment: NCI human cancer cell line growth inhibition: OVCAR-5 (Ovarian); format: cell-based
[42] = system: OVCAR-8; experiment: NCI human cancer cell line growth inhibition: OVCAR-8 (Ovarian); format: cell-based
[43] = system: SK-OV-3; experiment: NCI human cancer cell line growth inhibition: SK-OV-3 (Ovarian); format: cell-based
[44] = system: 786-0; experiment: NCI human cancer cell line growth inhibition: 786-0 (Renal); format: cell-based
[45] = system: A498; experiment: NCI human cancer cell line growth inhibition: A498 (Renal); format: cell-based
[46] = system: ACHN; experiment: NCI human cancer cell line growth inhibition: ACHN (Renal); format: cell-based
[47] = system: CAKI-1; experiment: NCI human cancer cell line growth inhibition: CAKI-1 (Renal); format: cell-based
[48] = system: RXF-393; experiment: NCI human cancer cell line growth inhibition: RXF-393 (Renal); format: cell-based
[49] = system: SN12C; experiment: NCI human cancer cell line growth inhibition: SN12C (Renal); format: cell-based
[50] = system: TK-10; experiment: NCI human cancer cell line growth inhibition: TK-10 (Renal); format: cell-based
[51] = system: UO-31; experiment: NCI human cancer cell line growth inhibition: UO-31 (Renal); format: cell-based
[52] = system: MCF7; experiment: NCI human cancer cell line growth inhibition: MCF7 (Breast); format: cell-based
[53] = system: NCI/ADR-RES; format: cell-based, human; details: Breast
[54] = system: MDA-MB-231/ATCC; experiment: NCI human cancer cell line growth inhibition: MDA-MB-231/ATCC (Breast); format: cell-based
[55] = system: MDA-MB-435; experiment: NCI human cancer cell line growth inhibition: MDA-MB-435 (Breast); format: cell-based
[56] = system: MDA-N; experiment: NCI human cancer cell line growth inhibition: MDA-N (Breast); format: cell-based
[57] = system: BT-549; experiment: NCI human cancer cell line growth inhibition: BT-549 (Breast); format: cell-based
[58] = system: T-47D; experiment: NCI human cancer cell line growth inhibition: T-47D (Breast); format: cell-based
[59] = system: HS 578T; experiment: NCI human cancer cell line growth inhibition: HS 578T (Breast); format: cell-based

Compound: CCC/C=C/C=C/C(=O)O[C@H]1/C(=C/C(=O)OC)C[C@H]2C[C@H]([C@@H](C)O)OC(=O)C[C@H](O)C[C@@H]3C[C@H](OC(C)=O)C(C)(C)[C@](O)(C[C@@H]4C/C(=C/C(=O)OC)C[C@H](/C=C/C(C)(C)[C@]1(O)O2)O4)O3 [Bryo-1, Bryostatin-1, reference compound]
- Growth inhibition (GI50) [1]: −5.30 log of molar concentration
- Growth inhibition (GI50) [2]: −5.70 log of molar concentration
- Growth inhibition (GI50) [3]: −5.40 log of molar concentration
- Growth inhibition (GI50) [4]: −5.50 log of molar concentration
- Growth inhibition (GI50) [5]: >−5 log of molar concentration
- Growth inhibition (GI50) [6]: >−5 log of molar concentration
- Growth inhibition (GI50) [7]: −5.20 log of molar concentration
- Growth inhibition (GI50) [8]: −5.30 log of molar concentration
- Growth inhibition (GI50) [9]: >−5 log of molar concentration
- Growth inhibition (GI50) [10]: −5.30 log of molar concentration
- Growth inhibition (GI50) [11]: >−5 log of molar concentration
- Growth inhibition (GI50) [12]: >−5 log of molar concentration
- Growth inhibition (GI50) [13]: −5.60 log of molar concentration
- Growth inhibition (GI50) [14]: >−5 log of molar concentration
- Growth inhibition (GI50) [15]: −5.40 log of molar concentration
- Growth inhibition (GI50) [16]: −5.30 log of molar concentration
- Growth inhibition (GI50) [17]: −5.30 log of molar concentration
- Growth inhibition (GI50) [18]: >−5 log of molar concentration
- Growth inhibition (GI50) [19]: −5.30 log of molar concentration
- Growth inhibition (GI50) [20]: −5.20 log of molar concentration
- Growth inhibition (GI50) [21]: −5.50 log of molar concentration
- Growth inhibition (GI50) [22]: −5.10 log of molar concentration
- Growth inhibition (GI50) [23]: −5.20 log of molar concentration
- Growth inhibition (GI50) [24]: >−5 log of molar concentration
- Growth inhibition (GI50) [25]: >−5 log of molar concentration
- Growth inhibition (GI50) [26]: −5.50 log of molar concentration
- Growth inhibition (GI50) [27]: −5.10 log of molar concentration
- Growth inhibition (GI50) [28]: −5.30 log of molar concentration
- Growth inhibition (GI50) [29]: >−5 log of molar concentration
- Growth inhibition (GI50) [30]: −5.10 log of molar concentration
- Growth inhibition (GI50) [31]: −5.20 log of molar concentration
- Growth inhibition (GI50) [32]: >−5 log of molar concentration
- Growth inhibition (GI50) [33]: −5.20 log of molar concentration
- Growth inhibition (GI50) [34]: −5.10 log of molar concentration
- Growth inhibition (GI50) [35]: −5.70 log of molar concentration
- Growth inhibition (GI50) [36]: −5.10 log of molar concentration
- Growth inhibition (GI50) [37]: −5.30 log of molar concentration
- Growth inhibition (GI50) [38]: −5.30 log of molar concentration
- Growth inhibition (GI50) [39]: −5.10 log of molar concentration
- Growth inhibition (GI50) [40]: −5.50 log of molar concentration
- Growth inhibition (GI50) [41]: >−5 log of molar concentration
- Growth inhibition (GI50) [42]: −5.10 log of molar concentration
- Growth inhibition (GI50) [43]: −5.10 log of molar concentration
- Growth inhibition (GI50) [44]: −5.20 log of molar concentration
- Growth inhibition (GI50) [45]: >−5 log of molar concentration
- Growth inhibition (GI50) [46]: −5.50 log of molar concentration
- Growth inhibition (GI50) [47]: −5.40 log of molar concentration
- Growth inhibition (GI50) [48]: −5.30 log of molar concentration
- Growth inhibition (GI50) [49]: −5.10 log of molar concentration
- Growth inhibition (GI50) [50]: >−5 log of molar concentration
- Growth inhibition (GI50) [51]: −5.60 log of molar concentration
- Growth inhibition (GI50) [52]: −5.20 log of molar concentration
- Growth inhibition (GI50) [53]: >−5 log of molar concentration
- Growth inhibition (GI50) [54]: −5.20 log of molar concentration
- Growth inhibition (GI50) [55]: −5.10 log of molar concentration
- Growth inhibition (GI50) [56]: −5.10 log of molar concentration
- Growth inhibition (GI50) [57]: −5.10 log of molar concentration
- Growth inhibition (GI50) [58]: −5.20 log of molar concentration
- Growth inhibition (GI50) [59]: −5.2 log of molar concentration
